Experimental data taken from publication PMC10771590, “Pathway crosstalk between the central metabolic and heme biosynthetic pathways in Phanerochaete chrysosporium” (Applied Microbiology and Biotechnology, 2024).
Where two headings read alike, the source gives them in different places.

Experiments:
pig CS = biological target: T1, pig CS (Sus scrofa, UniProt P00889); assay: Inhibitory effect of hemin on pig CS (SsCS) reaction; format: biochemical; conditions: 0–5.7 µM hemin, incubated 0 or 60 min at 4 °C (Supplemental Fig. S2)
T1 sequence (P00889 28-464): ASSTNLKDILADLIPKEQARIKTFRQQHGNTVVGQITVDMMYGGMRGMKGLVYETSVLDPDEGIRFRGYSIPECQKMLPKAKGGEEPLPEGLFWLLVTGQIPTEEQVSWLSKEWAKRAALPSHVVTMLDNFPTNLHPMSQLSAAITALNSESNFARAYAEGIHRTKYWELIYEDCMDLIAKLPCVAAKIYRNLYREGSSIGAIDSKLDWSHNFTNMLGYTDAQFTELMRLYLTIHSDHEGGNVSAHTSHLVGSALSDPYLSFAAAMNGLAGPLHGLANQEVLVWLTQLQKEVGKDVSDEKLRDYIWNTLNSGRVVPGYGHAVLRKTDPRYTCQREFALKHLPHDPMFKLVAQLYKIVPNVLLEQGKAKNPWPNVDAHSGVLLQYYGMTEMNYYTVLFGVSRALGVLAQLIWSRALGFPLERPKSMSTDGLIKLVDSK
Text: One heme-responsive-motif (HRM) was found in PcCS, which could be a possible heme-binding site (Lathrop and Timko [1993]; Zhang and Guarente [1995]; Ishikawa et al. [2005]; Yamanaka et al. [2003]). From the alignment analysis, only certain fungi contain HRM (CP motif) in their CSs (Supplemental Fig. S1). No mammalian CS contains HRM (Supplemental Fig. S1). […] Furthermore, the His residue corresponding to His^347 in PcCS was conserved in either mammalian or fungal CSs. Combining all the data, the heme-binding site is concluded to be His^347 of PcCS.
Concentration of hemin (nM)
Figure S2 Inhibitory effect of hemin on SsCS reaction. Reaction mixtures containing
1.5 nM SsCS, 40 mM Tris/HCl (pH 8.5) and 0, 0.5, 1.2 and 5.7 µM hemin were incubated […]

[1] = biological target: T2, rPcCS (mitochondrial citrate synthase) (Phanerodontia chrysosporium, UniProt Q0EAA7); assay: CS assay (DTNB method) and steady-state kinetic analysis; format: biochemical, Phanerochaete chrysosporium; conditions: for Ki: 0–2.5 μM hemin
T2 sequence (Q0EAA7 1-446): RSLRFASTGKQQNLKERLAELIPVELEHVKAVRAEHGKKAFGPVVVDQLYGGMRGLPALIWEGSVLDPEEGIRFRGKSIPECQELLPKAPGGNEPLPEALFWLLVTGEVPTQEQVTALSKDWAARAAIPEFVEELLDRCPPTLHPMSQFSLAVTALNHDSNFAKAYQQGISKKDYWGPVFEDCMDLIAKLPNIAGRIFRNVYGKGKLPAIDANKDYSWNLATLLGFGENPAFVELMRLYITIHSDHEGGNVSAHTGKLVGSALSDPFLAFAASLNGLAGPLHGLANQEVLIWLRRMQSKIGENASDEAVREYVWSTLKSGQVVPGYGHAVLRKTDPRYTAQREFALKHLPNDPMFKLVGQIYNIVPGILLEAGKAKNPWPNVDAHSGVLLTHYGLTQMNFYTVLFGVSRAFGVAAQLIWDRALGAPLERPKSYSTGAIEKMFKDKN
Description: CS was assayed by the 5, 5′-dithiobis-2-nitrobenzoic acid (DTNB) method, as described previously (Srere et al. [1963]). […] CS catalyzes the reaction of OAA with AcCoA, generating citrate and CoA. Thus, reactions were monitored by the amount of released CoA, which was followed at 412 nm (ε 13 600 M^–1cm^–1) by the formation of 2-nitro-5-mercaptobenzoic acid, via the reaction of CoA with DTNB. Reactions were monitored for 1 min, and initial velocity was determined. […] Inhibition studies were carried out in the presence of 0–2.5 μM hemin as described above. Kinetic parameters were determined from Lineweaver–Burk plots, and Ki values were determined from the secondary plot of the slopes of the Lineweaver–Burk plots. Hemin and OAA solutions were prepared immediately prior to use.
(§1) Fig. 5 Inhibitory effect of hemin on PcCS reaction. […] Reaction mixtures contained 1.5 nM rPcCS, 40 mM Tris-HCl (pH 8.5), and 120 μM DTNB. Fixed substrate was added at 12 μM and variable substrate at 3–12 μM. […] Insets: secondary plots of each slope of Lineweaver–Burk plots against the concentration of hemin for determining inhibition constants.

rPcCS = biological target: T3, rPcCS (Phanerodontia chrysosporium, UniProt Q0EAA7); assay: Heme-derived time-dependent inhibition of PcCS; format: biochemical, Phanerochaete chrysosporium; conditions: 30-min preincubation of PcCS with hemin at 4 °C; read-out: half-maximal inhibitory concentration (IC50)
T3 sequence (Q0EAA7 1-446): T2 sequence (Q0EAA7 1-446)
Description: Therefore, the data were expressed as relative values against the controls. When 5.7 μM hemin was used, citrate formed was determined by HPLC because of spectroscopic interference with the Soret absorption. All experiments were repeated at least three times, and standard deviations were within 5% in each plot.
as §1

With C=CC1=C(C)c2cc3[nH]c(cc4nc(cc5[nH]c(cc1n2)c(C)c5CCC(=O)O)C(CCC(=O)O)=C4C)c(C)c3C=C.[Fe+3] [hemin] the “effect on pig CS activity” value (pig CS) was “inhibited”, the “inhibitory effect relative to reported inhibitors of other eukaryotic CSs” value ([1]; hemin on PcCS versus inhibition constants larger than 0.1 mM) was 10 times and the “mode of inhibition for AcCoA” value ([1]; rPcCS, double-reciprocal plots) was “competitive inhibitor”. For the same compound, the “mode of inhibition for OAA” value ([1]; rPcCS, double-reciprocal plots) was “non-competitive inhibitor”, the Ki ([1]; read-out: Ki AcCoA, rPcCS, pH 8.5, AcCoA as variable substrate) was 5.8 µM and the Ki ([1]; read-out: Ki OAA, rPcCS, pH 8.5, OAA as variable substrate) was 8.7 µM. For the same compound, the IC50 (rPcCS) was 1 µM.
